Assay results taken from patent US20100029654A1, “CARDIOVASCULAR COMPOSITIONS AND USE OF THE SAME FOR THE TREATMENT OF ALZHEIMER'S DISEASE” (MOUNT SINAI SCHOOL OF MEDICINE, priority 2006, published 2010).
Counter-ions that a name gives are not always drawn. Like-named read-outs stand apart in the source and are kept apart here.

Key:
Aβ1-42 = Aβ1-42 content in conditioned medium of primary cortico-hippocampal neuron cultures from Tg2576 mice (ELISA; primary and secondary dose-response screening); type: cell-based, mouse; settings: for Ab1-42 (% of ctl) / activity at 100 µM: drug 100 μM; for reducing Aβ1-42: <85% of ctl; for activity at 100 µM: Mus musculus, Neuron, 24 h, read-out: Ab1-42 (% of ctl)
Description: (§1) Potential Aβ-lowering activity was assessed for 150 commercially available cardiovascular drugs using primary cortico-hippocampal neuron cultures derived from embryonic Tg2576 (El 6). […] All cardiovascular reagents were obtained from MicroSource Discovery Systems Inc (Gaylordsville, Conn.). […] Individual cardiovascular agents were applied directly to the culture medium (final 1% DMSO in the culture media). In control studies, parallel Tg2576 primary neuron cultures were treated with vehicle (1% DMSO) alone. The influence of drug treatments in Aβ content in the conditioned medium in treated cultures was assessed by assessing steady state levels of Aβ1-40 and Aβ1-42 in the culture media 24 hours after treatment.
(§2) Embryonic brain tissue was mechanically triturated and centrifuged. Neurons were seeded onto poly-D-lysine-coated 96-well plates at 1.0×10^5 cells per well and cultured in the serum-free chemically-defined medium Neurobasal, supplemented with 2% B27, 0.5 mM L-glutamine and 1% penicillin-streptomycin (Gibco-BRL).
(§3) For primary screening, cultured neurons were treated with 100 μM of drug in duplicates for 16 hours; all drugs were obtained in stock from MicroSource Discovery Systems Inc (Gaylordsville, Conn.). Conditioned medium was collected for Aβ detection using commercially available ELISA kits (BioSource). […] Primary neurons prepared in 96-well plates were treated with 0.1 μM, 1 μM, 10 μM, 50 μM, and 100 μM of each drug in duplicate for ˜16 hours and conditioned medium was collected for Aβ detection.

Aβ1-40 = Aβ1-40 content in conditioned medium of primary cortico-hippocampal neuron cultures from Tg2576 mice (ELISA; primary and secondary dose-response screening); type: cell-based, mouse; settings: for Ab1-40 (% of ctl) / activity at 100 µM: drug 100 μM; for reduced Aβ1-40: <85% of ctl; for activity at 100 µM: Mus musculus, Neuron, 24 h, read-out: Ab1-40 (% of ctl)
Description: as §1, §2, §3

[1] = system: primary cortico-hippocampal neuron cultures; assay: lactate dehydrogenase (LDH) activity assay in parallel neuron cultures
Description: For in vitro treatments drugs available from “The Spectrum Collection” in stocks of 10 mM in DMSO were applied directly to cultures to the desired concentrations (final 1% DMSO); control primary neuron cultures from Tg2576 embryos were treated with vehicle resulting in a final 1% DMSO.
Cell viability was assessed using a commercial available LDH assay kit according to the manufacture's instruction (Promega).

[2] = system: primary cortico-hippocampal neuron cultures; assay: MTT in primary screening
[3] = Primary Screening, table sorted by Aβ1-40
[4] = primary screening, Tg2576 neuron cultures, table sorted by Aβ1-42
[5] = primary screening, table sorted by Aβ1-42

Row | SMILES | EC50 (Aβ1-40; secondary dose-response screening 0.01-100 μM, 24 hours, read-out: EC50 (molar) Aβ1-40) [µM] | LDH (% of ctl) [1, 3] | LDH at E-5M % of change ([1]; drug at E-5M) [%] | LDH (% of ctl) [1, 5] | MTT (% of ctl) [2, 3] | MTT (% of ctl) [2, 5] | Ab1-42 (% of ctl) (Aβ1-42; [3]) | reducing Aβ1-42 (Aβ1-42; primary screening) | Ab1-42 (% of ctl) (Aβ1-42; [4]) | Ab1-40 (% of ctl) (Aβ1-40; [3]) | reduced Aβ1-40 (Aβ1-40; primary screening) | Ab1-40 (% of ctl) (Aβ1-40; [4]) | activity at 100 µM (Aβ1-42; [3]) [%] | activity at 100 µM (Aβ1-42; [4]) [%] | activity at 100 µM (Aβ1-40; [3]) [%] | activity at 100 µM (Aβ1-40; [4]) [%]
1 | NS(=O)(=O)c1cc2c(cc1C(F)(F)F)NC(Cc1ccccc1)NS2(=O)=O (stereo not shown) [Bendrofumethiazide] | 36.1 | 104.7 % of ctl | 5.0 | 104.7 % of ctl | 88.9 % of ctl | 88.9 % of ctl | 58.4 % of ctl | useful in reducing Aβ1-42 | 58.4 % of ctl | 76.2 % of ctl | reduced Aβ1-40 | 76.2 % of ctl | – | – | – | –
2 | NS(=O)(=O)c1cc2c(cc1Cl)N=C(CSCc1ccccc1)NS2(=O)=O [Benzthiazide] | – | 105.1 % of ctl | – | 105.1 % of ctl | 98.5 % of ctl | 98.5 % of ctl | – | – | – | – | – | – | 98.9 | 98.9 | 106 | 106
3 | CC(C)COCC(CN(Cc1ccccc1)c1ccccc1)N1CCCC1 (stereo not shown) [Bepridil Hydrochloride] | – | 1885.2 % of ctl | – | 1885.2 % of ctl | 77.1 % of ctl | 77.1 % of ctl | – | useful in reducing Aβ1-42 | – | – | reduced Aβ1-40 | – | 19.9 | 19.9 | 5.1 | 5.1
4 | CNCCc1ccccn1 [Betahistine Hydrochloride] | – | 107.3 % of ctl | – | 107.3 % of ctl | 107.1 % of ctl | 107.1 % of ctl | – | – | – | – | – | – | 98.9 | 98.9 | 110 | 110
5 | CCCC(=O)Nc1ncnc2c1ncn2[C@@H]1O[C@@H]2COP(=O)(O)O[C@H]2[C@H]1OC(=O)CCC [Bucladesine] | – | 357.1 % of ctl | – | 357.1 % of ctl | 97.2 % of ctl | 97.2 % of ctl | – | useful in reducing Aβ1-42 | – | – | – | – | 69.9 | 69.9 | 85.3 | 85.3
6 | CCCCNc1cc(C(=O)O)cc(S(N)(=O)=O)c1Oc1ccccc1 [Bumetanide] | – | 118.1 % of ctl | – | 118.1 % of ctl | 95.3 % of ctl | 95.3 % of ctl | – | useful in reducing Aβ1-42 | – | – | reduced Aβ1-40 | – | 74.7 | 74.7 | 2.3 | 2.3
7 | CCOc1nc2cccc(C(=O)OC(C)OC(=O)OC3CCCCC3)c2n1Cc1ccc(-c2ccccc2-c2nn[nH]n2)cc1 (stereo not shown) [Candesartan Cilextil] | – | 227.6 % of ctl | – | 227.6 % of ctl | 41.2 % of ctl | 41.2 % of ctl | 18.1 % of ctl | useful in reducing Aβ1-42 | 18.1 % of ctl | 9.3 % of ctl | reduced Aβ1-40 | 9.3 % of ctl | – | – | – | –
8 | C[C@]12CCC(=O)C=C1C=C[C@@H]1[C@@H]2CC[C@@]2(C)[C@H]1CC[C@@]2(O)CCC(=O)O [Canrenoic Acid, Potassium Salt] | – | 106.9 % of ctl | – | 106.9 % of ctl | 102.1 % of ctl | 102.1 % of ctl | – | – | – | – | – | – | 106 | 106 | 101 | 101
9 | C[C@H](CS)C(=O)N1CCC[C@H]1C(=O)O [Captopril] | – | 120.2 % of ctl | – | 120.2 % of ctl | 62.3 % of ctl | 62.3 % of ctl | – | – | – | – | – | – | 99.7 | 99.7 | 104 | 104

More lines, main results first:

Row | EC50 (Aβ1-40; secondary dose-response screening 0.01-100 μM, 24 hours, read-out: EC50 (molar) Aβ1-40) [µM] | LDH (% of ctl) [1, 3] | LDH at E-5M % of change ([1]; drug at E-5M) [%] | LDH (% of ctl) [1, 5] | MTT (% of ctl) [2, 3] | MTT (% of ctl) [2, 5] | SMILES | Ab1-42 (% of ctl) (Aβ1-42; [3]) | reducing Aβ1-42 (Aβ1-42; primary screening) | Ab1-42 (% of ctl) (Aβ1-42; [4]) | Ab1-40 (% of ctl) (Aβ1-40; [3]) | reduced Aβ1-40 (Aβ1-40; primary screening) | Ab1-40 (% of ctl) (Aβ1-40; [4]) | activity at 100 µM (Aβ1-42; [3]) [%] | activity at 100 µM (Aβ1-42; [4]) [%] | activity at 100 µM (Aβ1-40; [3]) [%] | activity at 100 µM (Aβ1-40; [4]) [%]
10 | – | 110.3 % of ctl | – | 110.3 % of ctl | 99.4 % of ctl | 99.4 % of ctl | NS(=O)(=O)c1cc2c(cc1Cl)N=CNS2(=O)=O [Chlorothiazide] | – | – | – | – | – | – | 104 | 104 | 107 | 107
11 | – | 645.8 % of ctl | – | 645.8 % of ctl | 12.1 % of ctl | 12.1 % of ctl | NS(=O)(=O)c1cc(C2(O)NC(=O)c3ccccc32)ccc1Cl (stereo not shown) [Chlorthalidone] | – | – | – | – | – | – | 96.7 | 96.7 | 108 | 108
12 | – | 118.3 % of ctl | – | 118.3 % of ctl | 84.5 % of ctl | 84.5 % of ctl | O=c1cc(-c2ccccc2)oc2cc(O)cc(O)c12 [Chrysin] | – | – | – | – | – | – | 83.4 | 83.4 | 71.6 | 71.6
13 | – | 110.5 % of ctl | – | 110.5 % of ctl | 97.9 % of ctl | 97.9 % of ctl | CCOC(=O)C(C)(C)Oc1ccc(Cl)cc1 [Clofibrate] | – | – | – | – | – | – | 92.5 | 92.5 | 90.9 | 90.9
14 | – | 99.9 % of ctl | – | 99.9 % of ctl | 99.2 % of ctl | 99.2 % of ctl | C[C@@H]1CCC[C@H](C)N1NC(=O)c1ccc(Cl)c(S(N)(=O)=O)c1 [Clopamide] | – | – | – | – | – | – | 98.9 | 98.9 | 92 | 92
15 | – | 110.3 % of ctl | – | 110.3 % of ctl | 97.7 % of ctl | 97.7 % of ctl | NS(=O)(=O)c1cc2c(cc1Cl)NC(C1CC3C=CC1C3)NS2(=O)=O (stereo not shown) [Cyclothiazide] | – | useful in reducing Aβ1-42 | – | – | reduced Aβ1-40 | – | 75 | 75 | 71.1 | 71.1
